Results taken from patent US20050090505A1, “Methods of reducing risk of infection from pathogens” (priority 2003, published 2005).
Where a name gives a salt, the structure may show the parent alone. Read-outs that look alike come from different tables or passages of the source.

Columns and labels:
[1] = biological target: T1, airway epithelial sodium currents (sodium channel) (UniProt A0A8I3MKE6+A0A8I3Q679+Q95165); assay: Sodium channel blocking activity: inhibition of short circuit current (ISC) in airway epithelial monolayers mounted in Ussing chambers; assay type: cell-based, human, dog, sheep or rodent; details: for Fold Amiloride** (PSA 4022 = 100): Cyclic Pyrazinoylguanidines, relative potency for PSA 4022 = 100 using EC50 from PSA 4022 in same run; for EC50: Selected Cyclic Pyrazinoylguanidines (Formula III), mean ± spread
T1 sequence (A0A8I3MKE6 1-646): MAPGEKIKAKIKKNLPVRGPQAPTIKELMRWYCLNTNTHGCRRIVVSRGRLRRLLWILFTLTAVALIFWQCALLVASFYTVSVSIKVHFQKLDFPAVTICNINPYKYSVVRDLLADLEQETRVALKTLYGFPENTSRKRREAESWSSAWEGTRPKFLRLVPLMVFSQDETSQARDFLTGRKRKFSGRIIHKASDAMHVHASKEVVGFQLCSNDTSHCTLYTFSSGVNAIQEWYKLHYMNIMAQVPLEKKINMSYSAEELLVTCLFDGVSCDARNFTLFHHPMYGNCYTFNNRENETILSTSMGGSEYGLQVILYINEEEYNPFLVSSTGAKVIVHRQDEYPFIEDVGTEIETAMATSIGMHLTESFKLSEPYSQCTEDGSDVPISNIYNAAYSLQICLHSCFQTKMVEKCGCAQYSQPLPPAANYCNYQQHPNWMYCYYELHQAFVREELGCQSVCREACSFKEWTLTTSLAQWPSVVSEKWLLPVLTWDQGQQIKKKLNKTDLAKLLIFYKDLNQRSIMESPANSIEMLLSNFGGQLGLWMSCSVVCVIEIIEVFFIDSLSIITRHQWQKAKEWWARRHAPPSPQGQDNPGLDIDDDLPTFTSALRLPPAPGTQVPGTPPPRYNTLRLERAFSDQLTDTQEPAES
T1 sequence (A0A8I3Q679 1-649): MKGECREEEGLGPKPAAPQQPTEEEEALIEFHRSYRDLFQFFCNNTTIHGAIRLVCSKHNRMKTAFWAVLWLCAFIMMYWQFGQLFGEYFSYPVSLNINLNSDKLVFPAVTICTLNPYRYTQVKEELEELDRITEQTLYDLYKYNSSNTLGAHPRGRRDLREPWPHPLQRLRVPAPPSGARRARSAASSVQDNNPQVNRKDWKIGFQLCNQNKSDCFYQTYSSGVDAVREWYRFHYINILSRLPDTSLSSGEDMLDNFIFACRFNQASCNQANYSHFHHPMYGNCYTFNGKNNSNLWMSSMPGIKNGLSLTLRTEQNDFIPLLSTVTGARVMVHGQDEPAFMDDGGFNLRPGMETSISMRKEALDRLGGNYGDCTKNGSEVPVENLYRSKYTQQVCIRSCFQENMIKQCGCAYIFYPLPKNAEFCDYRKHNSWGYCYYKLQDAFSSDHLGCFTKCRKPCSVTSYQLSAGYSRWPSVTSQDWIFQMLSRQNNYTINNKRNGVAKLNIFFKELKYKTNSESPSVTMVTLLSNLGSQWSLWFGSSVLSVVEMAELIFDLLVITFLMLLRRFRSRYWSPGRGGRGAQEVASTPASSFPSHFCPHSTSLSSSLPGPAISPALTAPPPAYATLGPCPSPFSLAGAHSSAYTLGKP
T1 sequence (Q95165 1-641): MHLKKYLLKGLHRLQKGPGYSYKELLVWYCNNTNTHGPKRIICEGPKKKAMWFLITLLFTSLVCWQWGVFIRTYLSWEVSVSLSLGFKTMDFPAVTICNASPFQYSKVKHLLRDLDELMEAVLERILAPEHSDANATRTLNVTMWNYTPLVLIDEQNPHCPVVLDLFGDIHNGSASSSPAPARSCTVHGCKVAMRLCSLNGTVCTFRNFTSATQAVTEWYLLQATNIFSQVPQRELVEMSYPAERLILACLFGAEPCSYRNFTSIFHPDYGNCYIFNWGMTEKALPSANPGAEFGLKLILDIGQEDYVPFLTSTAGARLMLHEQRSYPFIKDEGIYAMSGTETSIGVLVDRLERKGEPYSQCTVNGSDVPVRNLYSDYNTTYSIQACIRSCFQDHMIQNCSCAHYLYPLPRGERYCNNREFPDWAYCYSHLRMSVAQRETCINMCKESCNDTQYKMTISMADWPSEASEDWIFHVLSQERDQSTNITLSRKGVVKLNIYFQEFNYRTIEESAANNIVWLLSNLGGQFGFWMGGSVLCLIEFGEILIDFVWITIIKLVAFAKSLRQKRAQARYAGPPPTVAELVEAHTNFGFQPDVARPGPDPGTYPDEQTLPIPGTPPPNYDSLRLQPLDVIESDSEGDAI
Protocol: In Vitro Measure of Sodium Channel Blocking Activity and Reversibility
One assay used to assess mechanism of action and/or potency of the compounds of the present invention involves the determination of lumenal drug inhibition of airway epithelial sodium currents measured under short circuit current (ISC) using airway epithelial monolayers mounted in Ussing chambers. Cells obtained from freshly excised human, dog, sheep or rodent airways are seeded onto porous 0.4 micron Snapwell™ Inserts (CoStar), cultured at air-liquid interface (ALI) conditions in hormonally defined media, and assayed for sodium transport activity (ISC) while bathed in Krebs Bicarbonate Ringer (KBR) in Using chambers. All test drug additions are to the lumenal bath with half-log dose addition protocols (from 1×10^−11 M to 3×10^−5 M), and the cumulative change in ISC (inhibition) recorded. All drugs are prepared in dimethyl sulfoxide as stock solutions at a concentration of 1×10^−2 M and stored at −20° C. Eight preparations are typically run in parallel; two preparations per run incorporate amiloride and/or benzamil as positive controls. After the maximal concentration (5×10^−5 M) is administered, the lumenal bath is exchanged three times with fresh drug-free KBR solution, and the resultant ISC measured after each wash for approximately 5 minutes in duration. Reversibility is defined as the percent return to the baseline value for sodium current after the third wash. All data from the voltage clamps are collected via a computer interface and analyzed off-line.
Dose-effect relationships for all compounds are considered and analyzed by the Prism 3.0 program. IC50 values, maximal effective concentrations, and reversibility are calculated and compared to amiloride and benzamil as positive controls.

SMILES	melting point	also measured
N=C(NCCOCCOCCN)NC(=O)c1nc(Cl)c(N)nc1N	87 to 90 °C	
CC(C)(C)OC(=O)NCCCCCCCCCCNC(=N)NC(=O)c1nc(Cl)c(N)nc1N	186 to 188 °C	
CC(C)(C)OC(=O)N=C(NCCCCCCCCNC(=N)NC(=O)c1nc(Cl)c(N)nc1N)NC(=O)OC(C)(C)C	208 to 210 °C (dec.)	
CC(C)(C)OC(=O)NCCCCCCCCCCCNC(=N)NC(=O)c1nc(Cl)c(N)nc1N	82 to 84 °C	
N=C(NCCCCc1ccc(OCC(=O)NCC(N)=O)cc1)NC(=O)c1nc(Cl)c(N)nc1N (as salt: HCl) [compound 16314, N-carbamoylmethyl-2-(4-{4-[N′-(3,5-diamino-6-chloropyrazine-2-carbonyl)guanidino]butyl}phenoxy)acetamide]	178 to 180 °C (dec.)	
N=C(N)NCCOCCOCCNC(=N)NC(=O)c1nc(Cl)c(N)nc1N (as salt: hydrochloride)	108 to 112 °C (dec.)	
N=C(NCCCOCCCN)NC(=O)c1nc(Cl)c(N)nc1N (as salt: hydrochloride)	164 to 166 °C (dec.)	
N=C(N)NCCCOCCCNC(=N)NC(=O)c1nc(Cl)c(N)nc1N (as salt: hydrochloride)	72 to 75 °C (dec.)	
CN(C)C(=O)COc1ccc(CCCCNC(=N)NC(=O)c2nc(Cl)c(N)nc2N)cc1 (as salt: hydrochloride) [compound 16313, 2-(4-{4-[N-(3,5-diamino-6-chloropyrazine-2-carbonyl)guanidino]-butyl}phenoxy)-N,N-dimethylacetamide hydrochloride]	130 to 132 °C (dec.)	
N=C(NCCCCc1ccc(OCC(=O)Nc2ncc[nH]2)cc1)NC(=O)c1nc(Cl)c(N)nc1N (as salt: hydrochloride) [compound 16437, 2-(4-{4-[N′-(3,5-diamino-6-chloropyrazine-2-carbonyl)guanidino]-butyl}phenoxy)-N-(1H-imidazol-2-yl)acetamide dihydrochloride]	172 to 174 °C	
N=C(NCCCCCCN)NC(=O)c1nc(Cl)c(N)nc1N (as salt: hydrochloride) [compound 18706, N-(6-aminohexyl)-N′-(3,5-diamino-6-chloropyrazine-2-carbonyl)guanidine dihydrochloride]	> 240 °C	
N=C(N)NCCCCCCCCCNC(=N)NC(=O)c1nc(Cl)c(N)nc1N (as salt: hydrochloride) [compound 19006, N-{9-[N′-(3,5-diamino-6-chloropyrazine-2-carbonyl)guanidino]nonyl}guanidine dihydrochloride]	178 to 180 °C	
N=C(N)NCCCCCCCNC(=N)NC(=O)c1nc(Cl)c(N)nc1N (as salt: hydrochloride) [compound 19155, N-{7-[N′-(3,5-diamino-6-chloropyrazine-2-carbonyl)guanidino]heptyl}guanidine dihydrochloride]	140 to 142 °C	
N=C(NCCCCCCCCCN)NC(=O)c1nc(Cl)c(N)nc1N (as salt: hydrochloride) [compound 19335, N-(9-aminononyl)-N′-(3,5-diamino-6-chloropyrazine-2-carbonyl)-guanidine dihydrochloride]	155 to 157 °C (dec.)	
N=C(NCCCCCCCCN)NC(=O)c1nc(Cl)c(N)nc1N (as salt: hydrochloride) [compound 19336, N-(8-aminooctyl)-N′-(3,5-diamino-6-chloropyrazine-2-carbonyl)-guanidine dihydrochloride]	253 to 255 °C	
N=C(NCCCCCCCCCCN)NC(=O)c1nc(Cl)c(N)nc1N (as salt: hydrochloride) [compound 19487, N-(10-aminodecyl)-N′-(3,5-diamino-6-chloropyrazine-2-carbonyl)-guanidine dihydrochloride]	168 to 170 °C	
N=C(N)NCCCCCCCCNC(=N)NC(=O)c1nc(Cl)c(N)nc1N (as salt: hydrochloride) [compound 19604, N-{8-[N′-(3,5-diamino-6-chloropyrazine-2-carbonyl)guanidino]octyl}-guanidine dihydrochloride]	130 to 132 °C	
Cl.Cl.Cl.N=C(NCCCCC1CCN(CCN)CC1)NC(=O)c1nc(Cl)c(N)nc1N [compound 25455, N-{4-[1-(2-Aminoethyl)piperidin-4-yl]butyl}-N′-(3,5-diamino-6-chloropyrazine-2-carbonyl)guanidine trihydrochloride]		Fold Amiloride** (PSA 4022 = 100) [1]: 5 ± 1; EC50 ([1]; read-out: EC50): 0.104 ± 0.032 µM
N=C(NCCCCC1CCN(CC(O)CO)CC1)NC(=O)c1nc(Cl)c(N)nc1N (centres unmarked) [compound 25456, N-(3,5-Diamino-6-chloropyrazine-2-carbonyl)-N′-{4-[1-(2,3-dihydroxypropyl)-piperidin-4-yl]butyl}guanidine]		Fold Amiloride** (PSA 4022 = 100) [1]: 6 ± 2; EC50 ([1]; read-out: EC50): 0.106 ± 0.034 µM
N=C(NCCCCC1CCN(CCCN)CC1)NC(=O)c1nc(Cl)c(N)nc1N [compound 25510, N-{4-[1-(3-Aminopropyl)piperidin-4-yl]butyl}-N′-(3,5-diamino-6-chloropyrazine-2-carbonyl)guanidine trihydrochloride]		Fold Amiloride** (PSA 4022 = 100) [1]: 3 ± 9; EC50 [1]: 0.061 ± 0.023 µM
CC(C)(C)OC(=O)N=C(NCCCN1CCC(CCCCNC(=N)NC(=O)c2nc(Cl)c(N)nc2N)CC1)NC(=O)OC(C)(C)C [compound 25569, N-(3,5-Diamino-6-chloropyrazine-2-carbonyl)-N′-{4-[1-(3-[N″,N′″-bis-tert-butoxycarbonyl]guanidinopropyl)piperidin-4-yl]butyl}guanidine]		Fold Amiloride** (PSA 4022 = 100) [1]: 41 ± 9; EC50 ([1]; read-out: EC50): 0.016 ± 0.003 µM
Cl.Cl.Cl.N=C(N)NCCCN1CCC(CCCCNC(=N)NC(=O)c2nc(Cl)c(N)nc2N)CC1 [compound 25795, N-(3,5-Diamino-6-chloropyrazine-2-carbonyl)-N′-{4-[1-(3-guanidinopropyl)piperidin-4-yl]butyl}guanidine trihydrochloride]		Fold Amiloride** (PSA 4022 = 100) [1]: 18 ± 7
